Data published in paper PMC9730820, “Near-infrared-dye labeled tumor vascular-targeted dimer GEBP11 peptide for image-guided surgery in gastric cancer” (Frontiers in Oncology, 2022).
Where a SMILES comes first, the peptide text is derived from it. Bridges are numbered along the chain shown (N, C = ends). [ ]: non-standard residue; d: D form. The star is where a group is joined. X1 = CC[N+]1=C(C=CC=CC=C2N(CCCCCC(=O)*)c3ccc4c(S(=O)(=O)O)cc(S(=O)(=O)O)cc4c3C2(C)C)C(C)(C)c2c1ccc1c(S(=O)(=O)O)cc(S(=O)(=O)[O-])cc21; Ahx = NCCCCCC(=O)O

Assays:
[1] = tested on: tumor vascular epithelial cells (CD31); experiment: Fluorescence microscopy co-localisation of probe with CD31 in resected tumor sections; conditions: frozen sections of resected samples, FITC-labeled anti-mouse CD31, confocal fluorescence microscopic examination
Protocol: Resected samples were embedded in optimum cutting temperature (OCT) compound (Leica, Germany), and 10μm-thick frozen tissue sections were cut on a cryostat microtome (Leica, Germany). The sections were fixed immediately with precooled isoacetone for 30min and stored at –20 °C. Hematoxylin and Eosin (H&E) staining was used for histological analysis. Tumor margins defined by H&E staining and NIR fluorescence were compared. All slides were scanned by using Pannoramic-250 Flash II slide-scanner (3D-Histech, Budapest, Hungary) and analyzed by Case viewer software (3D-Histech, Budapest, Hungary). Mouse tumor vascular endothelial cells were stained by FITC-labeled rat anti-mouse CD31 (89C2) antibody (CST, Boston, USA). Fluorescence microscopy was used to validate the colocalization of (GEBP11)2-ACP-Cy5.5 probe and tumor microvessel. Fluorescence microscopic images were acquired at 100x magnification by using Echo Revolve upside-down integrated fluorescence microscope (ECHO, USA).

SGC7901 cells = experiment: In vitro binding of Cy5.5 labeled GEBP11 probes, confocal fluorescence; assay type: cell-based, human; conditions: 1μM probe, 6h, 37°C, laser scanning confocal microscope
Protocol: (§1) SGC7901 cells and HUVECs were cocultured as previously described ([18]). Co- HUVECs (co-cultured HUVECs), HUVECs and SGC7901 cells were harvested at log-growth phase and characterized by bench top fluorescent microscopy. Cells were incubated with 1μM GEBP11-Cy5.5 or (GEBP11)2-ACP-Cy5.5 for 6h at 37°C in a humidified atmosphere with 5% CO2. Binding affinity of the probes to cultured cells were detected by laser scanning confocal microscope (FV3000, Olympus, Japan). Nucleus were re-stained with ProLong™ Gold Antifade Mountant with DAPI (Invitrogen, USA) at room temperature. For binding specificity assessment, cells were pretreated with 25μM unlabeled GEBP11 for 30min at 37°C before incubating with the labeled probes.

HUVECs = experiment: as above; assay type: cell-based, human; conditions: 1μM probe, 6h, 37°C, laser scanning confocal microscope
Protocol: as §1

[2] = Ex vivo biodistribution of NIR signal in tumor and main organs; parameters: species or system athymic nude mice; conditions: mouse, in vivo, iv, 200 ul of 5 uM probe in PBS per mouse; ex vivo NIR signal, kidney relative to muscle, 24 h post-injection, n=3, bar label of Figure 3C
Protocol: (§2) Subcutaneous tumor xenograft models were used to detect the biodistribution of NIR signals. Mice were euthanized at 24h after injection of the labeled probes or free Cy5.5. All assays were done in triplicates. Then tumor xenografts and main organs (heart, lung, kidney, bone, muscle, brain, spleen, liver, skin and intestines) were harvested. Living Image version 4.7.3 Software (IVIS) was used to quantify the NIR fluorescence intensity at selected ROIs. All ROI data were collected after subtracting background autofluorescence. Differences in the fluorescence intensities of the ROIs between different probes were statistically analyzed.

[3] = tested on: SGC7901 subcutaneous xenograft; experiment: as above; parameters: species or system athymic nude mice; conditions: tumors and major organs harvested at 24h after injection
Protocol: as §2

[4] = tested on: Co-HUVECs (HUVECs co-cultured with SGC7901 cells); experiment: In vitro binding of Cy5.5 labeled GEBP11 probes, confocal fluorescence, with competitive inhibition by unlabeled GEBP11; assay type: cell-based, human; conditions: 1μM probe, 6h, 37°C
Protocol: as §1

[5] = tested on: SGC7901-Luc orthotopic gastric cancer xenograft; experiment: Real-time NIR fluorescence imaging-guided resection; assay type: in vivo, athymic nude mice; conditions: surgery 24h after probe injection, checked by BLI
Protocol: Orthotopic gastric cancer xenograft mice were anesthetized with a ketamine/xylazine mixture via intraperitoneal injection 24h after injection of (GEBP11)2-ACP-Cy5.5 probe. Real-time NIR fluorescence imaging was used to guide the removal of the primary cancer lesion and potential metastatic lesions. After resection, all surgical specimens and surgical beds were examined by NIR fluorescence imaging to confirm complete resection. To compare the efficacy of the dimer GEBP11 NIR imaging, BLI imaging pictures were taken before and after resection, the findings of BLI imaging were kept blind to the researcher who performed the surgery.

[6] = tested on: SGC7901-Luc orthotopic gastric cancer xenograft; experiment: Live NIR fluorescence imaging in orthotopic gastric cancer xenograft model
Protocol: All animal experiments were conducted in compliance with protocols approved by the Institute of Animal Use Committee of Air Force Medical University. All gastric cancer xenograft models were established in 6–8 week old female athymic nude mice. The SGC7901-Luc or SGC7901-GFP cell suspension at a concentration of 2 × 10^6 cells/mL was prepared. For subcutaneous xenograft model, SGC7901-GFP cells suspension (100μL/mouse) were injected subcutaneously into the right upper limb (for in vivo binding affinity test) or lower flank of mouse (for in vivo biodistribution assay). The orthotopic gastric cancer xenograft models were established as described previously ([21]), In brief, open abdominal surgery was performed on the mice under general anesthesia, SGC7901-Luc cells suspension (100μL/mouse) were injected into the subserosa layer of the stomach.
Tumor growth was monitored by Caliper IVIS Lumina II (PerkinElmer, MA, USA). GFP fluorescence imaging was performed in subcutaneous xenograft model. Bioluminescence imaging (BLI) was performed to monitor tumor growth in the orthotopic xenograft models. Because of its higher penetrability and sensitivity, peritoneal metastasis can be visualized clearly as well. Before BLI was acquired, mice were injected with D-luciferin (150 mg/kg) by intraperitoneal injection and anesthetized with 2% isoflurane. Living Image software 4.7.3 (IVIS) was used to quantify bioluminescence signals.
Xenograft mice were injected with 200 ul GEBP11-Cy5.5, (GEBP11)2-ACP-Cy5.5 or free Cy5.5 (5 µM in PBS) via tail veins. Live NIR fluorescence imaging was performed at different time points. NIR Fluorescence intensity was quantified by region-of-interest (ROI) measurement using Living Image software 4.7.3 (IVIS).

[7] = tested on: SGC7901 subcutaneous xenograft; experiment: Live NIR fluorescence imaging in subcutaneous gastric cancer xenograft model; assay type: in vivo, athymic nude mice
Excerpt: All mice were fed irradiated alfalfa-free rodent diet (Envigo Teklad, Madison, WI) to reduce background in stomach and gut for one week prior to the imaging experiments. The mice models were used for in vivo imaging and surgical procedures when xenograft diameter reached 5 to 10 mm.

Structure (SMILES) | Co-localisation of probe fluorescence with CD31 [1] | Fluorescence signal on SGC7901 after incubation with probe (SGC7901 cells) | Fluorescence signal on HUVECs after incubation with probe (HUVECs) | tissue to tissue ratio at 24 h [2] | Distribution of the NIR probe in tumor and organs, ex vivo fluorescence imaging [3] | Signal intensity compared with the mono probe ([4]; confocal microscope) | Fluorescence signal on Co-HUVECs after incubation with probe ([4]; laser scanning confocal microscope) | Residual cancer lesion after NIR-guided resection [5] | Time at which signal intensity at the tumor site peaked ([6]; 200 ul of 5 µM probe via tail vein, IVIS ROI) [h] | NIR fluorescence signal at the tumor sites at 6h compared with GEBP11-Cy5.5 or free Cy5.5 ([6]; 6h after injection) | Time at which NIR fluorescence signal at the tumor site peaked ([7]; 200 ul of 5 µM probe in PBS via tail vein, observed 0-96 h, IVIS ROI) [h] | Course of signal intensity at the tumor site ([6]; 200 ul of 5 µM via tail vein) | NIR signal at the tumor sites and site of accumulation, live imaging ([7]; 200 ul of 5 µM in PBS via tail vein)
CC[N+]1=C(C=CC=CC=C2N(CCCCCC(=O)N[C@H]3CSSC[C@@H](C(=O)NCCCCCC(=O)N[C@H]4CSSC[C@@H](C(=O)O)NC(=O)[C@H](CCSC)NC(=O)[C@H](CC(C)C)NC(=O)[C@H](Cc5ccc(O)cc5)NC(=O)[C@H](CO)NC(=O)[C@H](CC(N)=O)NC(=O)[C@H](CCCCN)NC(=O)[C@H]([C@@H](C)O)NC4=O)NC(=O)[C@H](CCSC)NC(=O)[C@H](CC(C)C)NC(=O)[C@H](Cc4ccc(O)cc4)NC(=O)[C@H](CO)NC(=O)[C@H](CC(N)=O)NC(=O)[C@H](CCCCN)NC(=O)[C@H]([C@@H](C)O)NC3=O)c3ccc4c(S(=O)(=O)O)cc(S(=O)(=O)O)cc4c3C2(C)C)C(C)(C)c2c1ccc1c(S(=O)(=O)O)cc(S(=O)(=O)[O-])cc21 [(GEBP11)2-ACP-Cy5.5] (X1-CTKNSYLMC[Ahx]CTKNSYLMC-OH; disulfide 1-9, 11-19; N-terminus and C-terminus assumed) | co-localize with CD31 | only scarce signal | only scarce signal | 1.41 | Significant enrichment | much higher signal intensity than GEBP11-Cy5.5 | strong fluorescence signal | No residual cancer lesion could be detected | 24 | stronger NIR fluorescence signal | 24 | – | –
CCN1\C(=C/C=C/C=C/C2=[N+](CCCCCC(=O)O)c3ccc4c(S(=O)(=O)O)cc(S(=O)(=O)O)cc4c3C2(C)C)C(C)(C)c2c1ccc1c(S(=O)(=O)[O-])cc(S(=O)(=O)O)cc21 [Free Cy5.5, Cy5.5, reference compound] | – | – | – | – | found in the kidney, without enrichment in the tumor | – | – | – | – | – | – | dropped rapidly after 6h | accumulated mainly in the kidneys, and no significant signal was detected at the tumor sites
